Measurements published in patent publication US12653192B2, “Pesticidal compositions” (SYNGENTA CROP PROTECTION AG, priority 2021, dated 2026).
Like-named read-outs stand apart in the source and are kept apart here.

Format: physicochemical
Protocol: The percentage amount of spiropidion remaining at each time interval during the high temperature storage testing was compared to an identical sample stored at −18° C. (100%=amount of spiropidion in the −18° C. sample at respective time interval).

chemical degradation of the active ingredient spiropidion: only minimal chemical degradation | % Spiropidion remaining (1 month): 99% | % Spiropidion remaining (12 months): 98%
Structure (SMILES): CCOC(=O)OC1=C(c2c(C)cc(Cl)cc2C)C(=O)N(C)C12CCN(OC)CC2 [Spiropidion, [3-(4-chloro-2,6-dimethyl-phenyl)-8-methoxy-1-methyl-2-oxo-1,8-diazaspiro[4.5]dec-3-en-4-yl]ethyl carbonate]
